“Also recorded” adds a separate entry of the source.
Key:
[1] = system: raskol Drosophila eye phenotype; test: Eye phenotype recovery assay (eye size) over several drug concentrations, SYNGAP1 (raskol) knockdown flies; assay type: in vivo, Drosophila melanogaster; settings: for Effect on eye phenotype recovery (eye size): Example 38, multiple drug dilutions vs control
Excerpt: Increased eye size over control (dark grey) indicates improved phenotype. […]
FIG. 42B depicts the eye size effect of NADL, L-Leucine and beta-hydroxyisovaleric acid on raskol Drosophila eye phenotype over multiple drug dilutions from Example 38.
A prioritized list of top hits was developed to further validate. Priority was place on actionable, safe, and biologically relevant drugs. To validate a top hit, the effect of each drug was tested over three doses. Three concentrations (1, 5, and 25 uM) were compared to a no drug control.

raskol Drosophila = test: Induced seizures in raskol Drosophila; assay type: in vivo, Drosophila melanogaster; settings: compared to untreated or NADL treated raskol Drosophila
Excerpt: In addition to the degenerate eye phenotype, raskol Drosophila are prone to induced seizures, as compared to wild type Drosophila.

[2] = system: raskol Drosophila eye phenotype; test: Drug screen (Prestwick Chemical Library) for rescue of degenerate eye in Drosophila model of SYNGAP1; assay type: in vivo, Drosophila melanogaster; settings: screen of over 1520 drugs; Z scores >1 indicated improved phenotype
Excerpt: The invention is also directed in part to a Drosophila melanogaster (fruit fly) model of SYNGAP1. The model is based on eye-specific RNAi knockdown of SYNGAP1, which is called raskol gene in flies. RNAi knockdown of the raskol gene in the eye of Drosophila results in a smaller, degenerate eye (FIG. 1). In one embodiment, the model is used to screen drug that rescue the degenerate eye phenotype in Drosophila melanogaster.
FIG. 7 is a graph of the Z-score of chemical effects on raskol Drosophila eye phenotype. Z scores >1 indicated improved phenotype; Z scores <1 indicated worsened phenotype. The arrow indicates the Z-score positioning of N-Acetyl-L-leucine (NALL).
Drosophila (fruit fly) model of SYNGAP1 was generated. This model is partial loss of function of SYNGAP1, similar to what is observed in humans.
To generate the model, fruit flies were engineered to eliminate SYNGAP1 gene expression in the eye. In flies, the gene is called raskol but herein referred to as SYNGAP1 for clarity. Eye-specific knockdown of SYNGAP1 using RNAi was used. RNAi knockdown of SYNGAP in the eye results in a smaller, disorganized and degenerate eye (FIG. 5).
The model allows for ascertaining therapeutic efficacy of a compound. The efficacy is evidenced by restoration of normal eye appearance upon treatment with the compound. […]

[3] = system: mice with experimental traumatic brain injury; settings: cited from earlier work
LAT1 = LAT1 (Homo sapiens, UniProt Q01650); settings: cited from earlier work
LAT1, sequence (Q01650 whole entry, species assumed): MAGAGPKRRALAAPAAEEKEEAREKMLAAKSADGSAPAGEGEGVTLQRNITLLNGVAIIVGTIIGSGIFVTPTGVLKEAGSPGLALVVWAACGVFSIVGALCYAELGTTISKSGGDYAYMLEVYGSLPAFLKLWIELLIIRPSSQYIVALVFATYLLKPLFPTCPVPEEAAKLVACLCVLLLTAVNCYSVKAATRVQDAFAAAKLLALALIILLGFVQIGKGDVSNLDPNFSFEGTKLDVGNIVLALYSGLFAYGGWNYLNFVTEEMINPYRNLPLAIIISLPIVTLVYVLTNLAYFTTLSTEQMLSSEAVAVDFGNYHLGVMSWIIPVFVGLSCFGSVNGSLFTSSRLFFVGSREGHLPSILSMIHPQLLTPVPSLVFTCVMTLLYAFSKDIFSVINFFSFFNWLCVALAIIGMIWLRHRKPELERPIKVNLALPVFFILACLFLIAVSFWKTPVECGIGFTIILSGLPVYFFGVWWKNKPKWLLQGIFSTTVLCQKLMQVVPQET
LAT1, sequence (P08195 102-630 partner, species assumed): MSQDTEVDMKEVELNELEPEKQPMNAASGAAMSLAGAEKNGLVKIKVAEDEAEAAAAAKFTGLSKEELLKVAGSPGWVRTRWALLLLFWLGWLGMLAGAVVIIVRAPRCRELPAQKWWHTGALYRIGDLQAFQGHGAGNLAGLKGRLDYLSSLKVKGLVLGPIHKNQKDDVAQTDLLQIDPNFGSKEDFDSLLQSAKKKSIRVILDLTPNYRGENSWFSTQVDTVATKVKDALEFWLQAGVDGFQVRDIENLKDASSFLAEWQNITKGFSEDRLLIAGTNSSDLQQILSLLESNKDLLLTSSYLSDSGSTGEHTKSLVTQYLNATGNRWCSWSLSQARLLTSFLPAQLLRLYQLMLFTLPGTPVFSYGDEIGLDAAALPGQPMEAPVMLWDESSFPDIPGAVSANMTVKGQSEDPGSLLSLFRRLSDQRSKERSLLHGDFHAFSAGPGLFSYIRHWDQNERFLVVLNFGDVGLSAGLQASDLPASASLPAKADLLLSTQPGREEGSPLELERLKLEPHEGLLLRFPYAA

mTORC1 = mTORC1 (Homo sapiens, UniProt P42345); settings: cited from earlier work
[4] = system: tyrosine catabolic process; test: RNAseq of untreated vs NALL-treated raskol Drosophila; assay type: in vivo, Drosophila melanogaster; settings: NALL-treated vs untreated raskol flies; TAT, HPD, FAA
Experimental: Enzymes TAT, HPD, FAA highlight the differences in RNA expression in the presence of NALL treatment; molecules are all associated with the tyrosine catabolic process.
Finally, RNAseq was performed to compare gene regulation differences between raskol Drosophila untreated and NALL-treated flies.

[5] = system: patients with cerebellar ataxia; settings: 12 out of 20 individuals; cited from earlier work
[6] = system: animals following unilateral labyrinthectomy; settings: only minor effects on normal vestibular function; cited from earlier work

CC(=O)N[C@H](CC(C)C)C(=O)O [NADL, N-acetyl-D-leucine]
Effect on eye phenotype recovery (eye size) [1]: do not have a significant effect; also recorded: neither NADL nor L-Leucine have a significant effect

CC(=O)N[C@@H](CC(C)C)C(=O)O [NALL, N-acetyl-L-leucine]
Effect on eye phenotype recovery (eye size) [1]: significant effect on phenotype recovery, as was observed with NALL | Eye phenotype in validation of top hit ([1]; three concentrations (1, 5, and 25 uM) vs no drug control): larger, more organized, less degenerate eye | Recovery time after induced seizures (raskol Drosophila): faster recovery time | Z-score of chemical effects on raskol Drosophila eye phenotype [2]: 1.35 | Autophagy in cortical tissue ([3]; reduced accumulation of autophagosome markers vs controls): increase in autophagy | Motor and cognitive outcomes ([3]; treated mice vs controls): significant improvement in motor and cognitive outcomes | Binding or blocking of LAT1 (LAT1): neither binds nor blocks | Effect on mTORC1 (mTORC1): inhibit or negatively regulate | Gene regulation differences by RNAseq [4]: Down regulated genes were enriched for tyrosine catabolic processes

CC(=O)N[C@@H](CC(C)C)C(=O)O [acetyl-leucine]
Individuals with significant improvements in ataxia [5]: 60% | Vestibular compensation [6]: accelerate vestibular compensation

CC(C)C[C@H](N)C(=O)O [L-Leucine]
Effect on eye phenotype recovery (eye size) [1]: do not have a significant effect; also recorded: neither NADL nor L-Leucine have a significant effect | Effect on mTORC1 (mTORC1): activates

CC(C)(O)CC(=O)O [beta-hydroxyisovaleric acid, Beta-hydroxyisovaleric acid]
Effect on eye phenotype recovery (eye size) [1]: do not have a significant effect
